Assay [1] has as its system EBP (zymostenol accumulation in EpiSC-derived OPCs). The assay can be described thus: GC/MS-based sterol profiling, zymostenol accumulation in OPCs. The note with it: Mus musculus, 24 h, EpiSC-derived OPCs, 24 hr treatment, 8 doses from 0.15 nM to 333 nM; read-out: Zymostenol GCMS EC50. Format: cell-based, mouse. Put shortly: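 EpiSC-derived OPCs (100,000/well) were treated 24 h in N2B27 without growth factors. Sterols were TMS-derivatized and analysed by GC/MS full-scan EI, quantified against cholesterol-d7. Zymostenol was normalized to the level after 24 h with 100 nM positive control reference.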

Another assay concerns EpiSC-derived OPCs. The assay can be described thus: In vitro phenotypic screening of OPCs (MBP staining, high-content imaging). The note with it: percentage of MBP+ oligodendrocytes, 3 days, 0.5 nM to 1000 nM, read-out: OPC EC50. The assay is classed as cell-based, mouse. A digest of the protocol: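 EpiSC-derived mouse OPCs seeded at 150,000/cm^2 on laminin in N2B27 without growth factors, treated 3 days at 37° C. with compound (8 points, 1000 nM to 0.5 nM). Fixed cells stained for MBP and DAPI and imaged; percentage of MBP+ oligodendrocytes fitted by Hill equation for EC50.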

The next assay has as its target human EBP (Homo sapiens (Human), UniProt Q15125). Put plainly: Competition binding assay (SPA, [3H]-Ifenprodil) to determine compound affinity to EBP. Particulars: [3H]-Ifenprodil 10 nM, HEK293 membrane overexpressing human EBP, Ki=IC50/(1+[L]/Kd); read-out: hEBP SPA Ki. On the procedure:
Membrane preparation: To examine compound binding affinity to EBP, human EBP was overexpressed in human embryonic kidney 293 cells. Cell pellet was lysed in 10 times weight binding buffer (50 mM Tris, 5 mM MgCl2, 0.1 mM EDTA, lx protease inhibitor cocktail, pH 7.5) on ice by using a dounce homogenizer. The solution was centrifuged at 25,000 g for 50 min at 4° C. The membrane pellet was re-suspended in binding buffer and run through a 25 5/8 gauge needle. After checking the concentration by Bradford assay, the whole cell membrane solution was adjusted to 20 mg/mL and stored at −80° C.
This binding solution was centrifuged at 400 g for 5 minutes to collect the bead/membrane mixture. After re-suspending the pellet in binding buffer at the same calculated volume with 0.01% BSA (Sigma A1933), the bead/membrane mixture was added in 384-well low-binding surface plate (PerkinElmer Cat #6057480) at 25 μl/well. Radioligand at different concentrations with and without the non-radio-labeled same ligand 5 uM (for nonspecific and total signal, respectively) was added to bring final volume to 50 µl/well with DMSO concentration at 0.1%. At equilibrium (3 hours after ligand addition), radiometric signal CPM was counted by using a Microbeta2 microplate counter (Perkinelmer).
Competition binding assay to determine compound affinity: The same conditions of the radioligand Kd study were used for compound single dose percentage inhibition and equilibrium dissociation constant Ki examinations, except 50 nL compound DMSO stock was pre-added in 384-well low-binding surface plate (PerkinElmer Cat #6057480) by Echo 550 (Labcyte) to reach the final concentration for single dose test at 1 uM, and dose response test from 0.06 nM to 5 uM (8 dose, 5 times dilution). A pre-incubated bead/membrane mixture was added in compound plate at 0.3 mg beads and […] membrane per well. […] At equilibrium (3 hours after ligand addition), radiometric signal was counted as described above. The percentage inhibition of compound at each testing concentration was calculated by normalizing each condition's CPM readout to full block (5 uM non-radiolabeled ligand) and non-block (DMSO) control conditions. Compound binding inhibition IC50 was determined by nonlinear regression fitting of percentage inhibition plot against compound concentration. Compound Ki was calculated from the equation Ki=IC50/(1+[L]/Kd), which [L] was radioligand concentration used in assay. All tests had N bigger or equal to 2.

SMILES strings stand for the structures. Like-named read-outs stand apart in the source and are kept apart here.

Usually EC50 stands for the concentration at which the effect is half-maximal. By Ki is commonly meant a dissociation constant, usually derived from enzyme kinetics or from competition with a known ligand.

Sequence of human EBP (Q15125 whole entry): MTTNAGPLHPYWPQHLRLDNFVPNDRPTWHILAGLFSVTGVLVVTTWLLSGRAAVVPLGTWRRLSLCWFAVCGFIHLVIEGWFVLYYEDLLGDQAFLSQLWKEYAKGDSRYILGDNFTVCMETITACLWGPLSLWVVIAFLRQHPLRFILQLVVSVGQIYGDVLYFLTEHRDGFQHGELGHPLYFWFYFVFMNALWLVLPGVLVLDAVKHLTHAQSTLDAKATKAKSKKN

Regarding `Cn1nc(C(F)(F)F)cc1[C@H]1CC[C@H](N2CCC3(CC2)CS(=O)(=O)C3)CC1` [Compound 25B, 7-((1r,4r)-4-(1-methyl-3-(trifluoromethyl)-1H-pyrazol-5-yl)cyclohexyl)-2-thia-7-azaspiro[3.5]nonane 2,2-dioxide], the EC50 turned out to be 26 nM in assay [1] and 87 nM in the assay on EpiSC-derived OPCs (Mus musculus, 72 h). For the same compound, the Ki at human EBP was 58 nM.
For `O=S1(=O)CC2(CCN(C3CCN(c4ncc(C(F)(F)F)cc4F)CC3)C2)C1` [Compound 32, 6-(1-(3-fluoro-5-(trifluoromethyl)pyridin-2-yl)piperidin-4-yl)-2-thia-6-azaspiro[3.4]octane 2,2-dioxide], the 50% effective concentration (EC50) in assay [1] is 7 nM; in the assay on EpiSC-derived OPCs (Mus musculus, 72 h), 60 nM. Further, the Ki at human EBP was 24 nM.
For `Cc1cc(C(F)(F)F)cnc1[C@H]1CC[C@H](N2CCC3(C2)CS(=O)(=O)C3)CC1` [Compound 47B, 6-((1r,4r)-4-(3-methyl-5-(trifluoromethyl)pyridin-2-yl)cyclohexyl)-2-thia-6-azaspiro[3.4]octane 2,2-dioxide] the same measures were 4.1 nM, 20 nM and 16 nM.
The like results for `O=S1(=O)CC2(CCN([C@H]3CC[C@H](c4cc(C(F)(F)F)nn4C4CCC4)CC3)C2)C1` [Compound 23B, 6-((1r,4r)-4-(1-Cyclobutyl-3-(trifluoromethyl)-1H-pyrazol-5-yl)cyclohexyl)-2-thia-6-azaspiro[3.4]octane 2,2-dioxide] were, in that order, 9 nM, 28 nM and 21 nM.
The like results for `O=S1(=O)CC2(CCN([C@H]3CC[C@@H](c4cc(C(F)(F)F)nn4C4CC4)CC3)CC2)C1` [Compound 40A, 7-((1r,4r)-4-(1-cyclopropyl-3-(trifluoromethyl)-1H-pyrazol-5-yl)cyclohexyl)-2-thia-7-azaspiro[3.5]nonane 2,2-dioxide] were, in that order, 4 nM, 22 nM and 32 nM.
Regarding `CC(C)n1nc(C2CC2)nc1[C@H]1CC[C@H](N2CCC3(C2)CS(=O)(=O)C3)C1` (single isomer, unassigned) [18B*, 6-(3-(3-cyclopropyl-1-isopropyl-1H-1,2,4-triazol-5-yl)cyclopentyl)-2-thia-6-azaspiro[3.4]octane 2,2-dioxide], the 50% effective concentration (EC50) in assay [1] was determined as 200 nM; with EpiSC-derived OPCs (Mus musculus, 72 h), 390 nM. For the same compound, the Ki at human EBP came to 210 nM.
The like results for `CC(C)n1nc(C2CC2)nc1[C@@H]1CC[C@@H](N2CCC3(C2)CS(=O)(=O)C3)C1` (single isomer, unassigned) [18C*] were, in that order, 54 nM, 240 nM and 82 nM.
For `CC(C)n1nc(-c2cncc(C(F)(F)F)c2)cc1[C@@H]1CC[C@H](N2CCC3(C2)CS(=O)(=O)C3)C1` (single isomer, unassigned) [13B*] the same measures were 0.9 nM, 1.3 nM and 25 nM.
For `O=S1(=O)CC2(CCN([C@H]3CC[C@@H](c4ccc(C(F)(F)F)cc4)CC3)C2)C1` [Compound 3B, 6-((1s,4s)-4-(4-(trifluoromethyl)phenyl)cyclohexyl)-2-thia-6-azaspiro[3.4]octane 2,2-dioxide] the same measures were 16 nM, 30 nM and 62 nM.
`Cn1nc(C(F)(F)F)cc1[C@H]1CC[C@H](N2CC[C@]3(CCS(=O)(=O)C3)C2)CC1` (single isomer, unassigned) [27B*]: the figures for the concentration for a half-maximal effect (EC50) (in assay [1]; in the assay on EpiSC-derived OPCs) were 22 nM and 130 nM, respectively. In addition, the Ki at human EBP turned out to be 46 nM.
As to `CC(C)n1nc(C(F)(F)F)cc1[C@H]1CC[C@@H](N2CCC3(C2)CS(=O)(=O)C3)CC1` [Compound 8B, 6-((1s,4s)-4-(1-isopropyl-3-(trifluoromethyl)-1H-pyrazol-5-yl)cyclohexyl)-2-thia-6-azaspiro[3.4]octane 2,2-dioxide], the concentration for a half-maximal effect (EC50) in assay [1] is 26 nM; in the assay with EpiSC-derived OPCs (Mus musculus, 72 h), 240 nM. For the same compound, the Ki at human EBP was found to be 21 nM.
`O=S1(=O)CC2(CCN([C@@H]3CC[C@@H](c4ccc(C(F)(F)F)nc4)C3)C2)C1` (single isomer, unassigned) [Compound 11B, (Trans)-6-(3-(6-(Trifluoromethyl)pyridin-3-yl)cyclopentyl)-2-thia-6-azaspiro[3.4]octane 2,2-dioxide]: the EC50 worked out at 7.3 nM in assay [1] and 35 nM with EpiSC-derived OPCs (Mus musculus, 72 h). Further, on human EBP, the inhibitory constant (Ki) stood at 42 nM.
For `O=S1(=O)CC2(CCN([C@@H]3CO[C@@H](c4ccc(C(F)(F)F)cc4)C3)C2)C1` (stereo in doubt) [19B*, 6-((3S,5R)-5-(4-(trifluoromethyl)phenyl)tetrahydrofuran-3-yl)-2-thia-6-azaspiro[3.4]octane 2,2-dioxide] the same measures were 10 nM, 49 nM and 27 nM.
For `O=S1(=O)CC2(CCN([C@H]3CC[C@H](c4cc(C(F)(F)F)n(C5CCC5)n4)CC3)C2)C1` [Compound 24, 6-((1r,4r)-4-(1-cyclobutyl-5-(trifluoromethyl)-1H-pyrazol-3-yl)cyclohexyl)-2-thia-6-azaspiro[3.4]octane 2,2-dioxide], the EC50 in assay [1] came to 3 nM; in the assay on EpiSC-derived OPCs (Mus musculus, 72 h) it was 6 nM. In addition, the inhibitory constant (Ki) at human EBP came out at 28 nM.
On to `Cc1cc(F)cnc1N1CCC(N2CCC3(C2)CS(=O)(=O)C3)CC1` [Compound 31, 6-(1-(5-fluoro-3-methylpyridin-2-yl)piperidin-4-yl)-2-thia-6-azaspiro[3.4]octane 2,2-dioxide], for which the EC50 was 32 nM in assay [1] and 190 nM with EpiSC-derived OPCs (Mus musculus, 72 h). The inhibitory constant (Ki) at human EBP is 59 nM.
With `CC(C)n1nc(C(F)(F)F)cc1[C@@H]1CC[C@H](N2CCC3(C2)CS(=O)(=O)C3)C1` (single isomer, unassigned) [10C*], the EC50 in assay [1] was 3 nM; in the assay with EpiSC-derived OPCs (Mus musculus, 72 h) it was 11 nM. Moreover, the Ki on human EBP amounted to 29 nM.
`CC(C)n1cc(C(F)(F)F)nc1[C@H]1CC[C@@H](N2CCC3(C2)CS(=O)(=O)C3)C1` (single isomer, unassigned) [20C*]: the half-maximal effective concentration (EC50) is 310 nM in assay [1] and 660 nM with EpiSC-derived OPCs (Mus musculus, 72 h). Moreover, the inhibitory constant (Ki) on human EBP was determined as 270 nM.
As to `CC(C)n1nc(-c2cncc(OC(F)F)c2)cc1[C@H]1CC[C@H](N2CCC3(C2)CS(=O)(=O)C3)CC1` [Compound 33A, 6-((1r,4r)-4-(3-(5-(Difluoromethoxy)pyridin-3-yl)-1-isopropyl-1H-pyrazol-5-yl)cyclohexyl)-2-thia-6-azaspiro[3.4]octane 2,2-dioxide], the EC50 in assay [1] amounted to 7.6 nM; with EpiSC-derived OPCs (Mus musculus, 72 h), 29 nM. Further, the Ki on human EBP worked out at 37 nM.
For `CC(C)n1cc(C(F)(F)F)nc1[C@H]1CC[C@H](N2CCC3(C2)CS(=O)(=O)C3)C1` (single isomer, unassigned) [20A*] the same measures were 240 nM, > 1000 nM and 280 nM.
The like results for `CC(C)n1nc(C(F)(F)F)cc1[C@H]1CC[C@H](N2CCC3(C2)CS(=O)(=O)C3)C1` (single isomer, unassigned) [10A*] were, in that order, 2.8 nM, 18 nM and 34 nM.
Turning to `CCn1nc(C(F)(F)F)cc1[C@H]1CC[C@H](N2CCC3(C2)CS(=O)(=O)C3)CC1` [Compound 15, 6-((1r,4r)-4-(1-Ethyl-3-(trifluoromethyl)-1H-pyrazol-5-yl)cyclohexyl)-2-thia-6-azaspiro[3.4]octane 2,2-dioxide], the 50% effective concentration (EC50) in assay [1] is 4 nM; with EpiSC-derived OPCs (Mus musculus, 72 h), 44 nM. Further, the inhibition constant (Ki) on human EBP turned out to be 25 nM.
